Values of other authors in patent publication US20240239832A1, “A PROCESS FOR THE PREPARATION OF N4-HYDROXYCYTIDINE AND ITS DERIVATIVES” (priority 2021, published 2024).

Tests used:
SARS-CoV-2 = settings: Vero cells; read-out: IC50, inhibition of replication of SARS-CoV-2
[1] = test system: remdesivir-resistant strains of the model CoV mouse hepatitis virus (MHV); settings: infected DBT cells
[2] = test system: Middle East respiratory syndrome coronavirus (MERS-CoV); settings: read-out: IC50, inhibition of replication of MERS-CoV
[3] = test system: Venezuelan equine encephalitis virus (VEEV) TC-83; settings: read-out: EC50, reduction of viral titers of VEEV TC-83
[4] = test system: acute respiratory syndrome coronavirus (SARS-CoV); settings: read-out: IC50, inhibition of replication of SARS-CoV

In the case of `O=c1nc(NO)ccn1[C@@H]1O[C@H](CO)[C@@H](O)[C@H]1O` [EIDD-1931, 1-(3,4-dihydroxy-5-(hydroxymethyl)tetrahydrofuran-2-yl)-4-(hydroxyamino)pyrimidin-2(1H)-one], the IC50 (SARS-CoV-2) is listed as 300 nM, the “reduction of viral titers of remdesivir-resistant MHV” value [1] is listed as “reduces viral titers” and the IC50 [2] is listed as 150 nM. The EC50 [3] was 426 nM and the IC50 [4] was 100 nM.
